From patent publication US3979508A, “Compositions and methods therewith for penicillin hypersensitivity detection” (Kremers-Urban Company, priority 1975, dated 1976)

Legend:
[1] = test system: penicillin hypersensitivity (patients); assay: Comparison of skin tests with penicilloyl-poly-L-lysine and penicillin G (Table III); assay type: in vivo, human; details: 1163 tested
Description: (§1) One of the uses for the conjugates of this invention is in skin testing for penicillin hypersensitivity. The conjugated compositions are prepared for skin testing by first dissolving the composition in buffered isotonic solutions, having a pH in the range from 7 to 8. For example, the conjugates prepared above may be diluted with aqueous solutions 0.15 M NaCl in 0.01 M phosphate, pH 7.6. In addition, other physiological salt solutions may be used.
(§2) Intradermal injections may be made of the foregoing solutions with a 26 guage needle, the volume injected may be generally about 0.01 to 0.03 cc. Alternatively, the conjugate may be applied by the scratch test technique. The development of a wheal at the injection site after about 20 minutes indicates a positive reaction, and penicillin hypersensitivity.
(§3) Penicillin hypersensitivity tests carried out with the conjugate compositions of this invention reflect the numerous advantages of penicillin hypersensitivity determinations made with such compositions. […] In Table II the distribution of skin reactions is shown by history of penicillin therapy and hypersensitivity. […] (See column 2, for example, showing the percentages of patients tested who had […] skin test.)

[2] = test system: penicillin hypersensitivity (patients); assay: Skin tests for penicillin hypersensitivity: monostereoisomeric penicilloyl-poly-L-lysine vs mixture of stereoisomers (Table II); assay type: in vivo, human
Description: as §1, §2, §3

[3] = GROUP I: claimed prior history of non-sensitivity and previous penicillin treatments
[4] = GROUP II: claimed prior history of sensitivity and previous penicillin treatments
[5] = GROUP III: no prior history of sensitivity and no previous penicillin treatments

penicilloyl-poly-L-lysine [PPL]
POSITIVE SKIN TESTS % [1]: 17.9% | Positive Skin Tests, Number of Patients [1]: 209 | NEGATIVE SKIN TESTS % [2, 3]: 91.5% | NEGATIVE SKIN TESTS No. [2, 3]: 4223 | NEITHER NEGATIVE NOR POSITIVE SKIN TESTS % [2, 3]: 0.7% | NEITHER NEGATIVE NOR POSITIVE SKIN TESTS No. [2, 3]: 36 | POSITIVE SKIN TESTS % [2, 3]: 7.8% | POSITIVE SKIN TESTS No. [2, 3]: 358 | NEGATIVE SKIN TESTS % [2, 4]: 77.7% | NEGATIVE SKIN TESTS No. [2, 4]: 143 | NEITHER NEGATIVE NOR POSITIVE SKIN TESTS % [2, 4]: nil | NEITHER NEGATIVE NOR POSITIVE SKIN TESTS No. [2, 4]: nil | POSITIVE SKIN TESTS % [2, 4]: 22.3% | POSITIVE SKIN TESTS No. [2, 4]: 41 | NEGATIVE SKIN TESTS % [2, 5]: 96.5% | NEGATIVE SKIN TESTS No. [2, 5]: 637 | NEITHER NEGATIVE NOR POSITIVE SKIN TESTS % [2, 5]: 0.2% | NEITHER NEGATIVE NOR POSITIVE SKIN TESTS No. [2, 5]: 1 | POSITIVE SKIN TESTS % [2, 5]: 3.3% | POSITIVE SKIN TESTS No. [2, 5]: 22 | NEGATIVE SKIN TESTS % ([2]; TOTALS, all groups): 91.6% | NEGATIVE SKIN TESTS No. ([2]; TOTALS, all groups): 5003 | NEITHER NEGATIVE NOR POSITIVE SKIN TESTS % ([2]; TOTALS, all groups): 0.7% | NEITHER NEGATIVE NOR POSITIVE SKIN TESTS No. ([2]; TOTALS, all groups): 37 | POSITIVE SKIN TESTS % ([2]; TOTALS, all groups): 7.7% | POSITIVE SKIN TESTS No. ([2]; TOTALS, all groups): 421
